The values below come from ChEMBL document CHEMBL1201862, “PubChem BioAssay data set” (2004).

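Grown in 96-well plates, cells were treated for 48 hours with each compound at five concentrations. Insufficient inhibition: endpoint recorded as highest concentration tested. GI50 = concentration required for 50% inhibition of growth.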 The source made the active and inactive calls. Cut-off read from the data, not from the text of the source: active = GI50 up to about 1.1 µM and inactive = higher. A value given as a limit tells only on which side of the number the result lay.

What all share (test): NCI anticancer screen, dose series, 48 h
For test [1], the system named is A549.
Test [2] has as its system EKVX.
Test [3] deals with HCT-116.
Test [4] has as its system HCT-15.
Test [5] deals with KM12.
Test [6] concerns M14.
The subject of test [7] is MCF7.
Test [8] relates to MDA-N.
In test [9] the test system is OVCAR-8.
In test [10] the test system is PC-3.
The test system of test [11] is SK-MEL-2.
Test [12] relates to TK-10.
The subject of test [13] is U-251.
Test [14] concerns UACC-62.
The test system of test [15] is HT-29.
Test [16] relates to MDA-MB-231.
Test [17] relates to SF-268.
The subject of test [18] is SF-539.

For the compound `CCOC(=O)N1C(=S)C(C(=O)OC)(C(=O)OC)N=C1C`, the GI50 in test [1] was > 100 µM (inactive); in [2], > 100 µM (inactive); in test [3], > 100 µM (inactive); in [4], > 100 µM; in [5], > 100 µM (inactive); in [6] it was > 100 µM (inactive). For the same compound, the GI50 in test [7], in test [8], in test [9], in test [10], in test [11] and in [12] was > 100 µM (inactive) throughout. In addition, the GI50 in test [13] and in [14] was > 100 µM (inactive) in each case.
Turning to `C/C(=N/NC(=S)NCCc1ccccn1)c1cnccn1`, the GI50 in test [1] was 28.8 µM (inactive); in test [2], 10.9 µM (inactive); in test [3], 23.2 µM (inactive); in test [15] it was 3.78 µM (inactive); in [5], 36.9 µM (inactive); in test [6] it was 24 µM (inactive). Moreover, the GI50 in [16] is 26.2 µM (inactive); in test [8], 53 µM (inactive); in [10], 48.8 µM (inactive); in [17], 38.5 µM (inactive); in [11] it was > 100 µM (inactive); in test [12], 17 µM (inactive). In addition, the results for the GI50 in test [13] and in test [14] were 20.2 µM (inactive) and 18.3 µM (inactive), respectively.
For `CN(C)Cc1cc(/N=N/c2cccc(Cl)c2)ccc1O`, the GI50 in test [1] is 15.5 µM (inactive); in test [3] it was 15.2 µM (inactive); in [4] it was 4.9 µM; in [15], 17 µM (inactive); in test [5] it was 7.08 µM (inactive); in test [6] it was 9.66 µM (inactive). In addition, the GI50 in test [7] was 14.8 µM (inactive); in test [16] it was 9.1 µM (inactive); in [8], 10.2 µM (inactive); in test [9], 14.9 µM (inactive); in [10], 16.6 µM (inactive); in test [17], 11.6 µM (inactive). In addition, the GI50 in test [18] is 16 µM (inactive); in test [12] it was 10.6 µM (inactive); in [13] it was 16.9 µM (inactive); in test [14], 3.61 µM (inactive).
Regarding `C=C1C(=O)O[C@H]2[C@H]([C@H](C)CCCC(C)=O)O[C@H]([C@@]3(C)CCC(=O)O3)C[C@@H]12`, the GI50 is > 100 µM (inactive) in [1]; 79.3 µM (inactive) in test [2]; 22.3 µM (inactive) in test [3]; 42 µM in [4]; 90.2 µM (inactive) in test [15]; 98.9 µM (inactive) in test [5]. For the same compound, the GI50 in [6] is 33.9 µM (inactive); in test [16], > 100 µM (inactive); in test [8] it was 53.1 µM (inactive); in test [9], 63.4 µM (inactive); in [10] it was > 100 µM (inactive); in test [17] it was 0.0316 µM (active). Further, the GI50 in test [18] was 59.8 µM (inactive); in test [11], > 100 µM (inactive); in test [12] it was 17.7 µM (inactive); in [13], > 100 µM (inactive); in test [14] it was 66.5 µM (inactive).
Take `CC(=O)OC12c3ccccc3-c3ccccc3C1C(C(=O)O)C2C(=O)O` (stereo not drawn): the GI50 in test [2] was > 10 µM (inactive); in test [4], > 10 µM; in test [15], > 10 µM (inactive); in test [5], > 10 µM (inactive); in test [6], > 10 µM (inactive); in [7], > 10 µM (inactive). In addition, the GI50 in test [16], in test [9], in test [10], in test [17], in test [18] and in [11] was > 10 µM (inactive) each time. In addition, the GI50 in test [12] and in [13] was > 10 µM (inactive) throughout.
On to `CSC1=C(C#N)C(=S)N=C(N)C1C(=O)Nc1ccc(C)cc1` (stereo not drawn), for which the GI50 is > 100 µM (inactive) in [1]; > 100 µM (inactive) in [2]; 81.5 µM (inactive) in test [3]; > 100 µM in test [4]; > 100 µM (inactive) in test [15]; > 100 µM (inactive) in test [5]. The GI50 in [6], in test [16], in test [8], in [9], in test [10] and in test [17] was > 100 µM (inactive) each time. Further, the GI50 in test [18], in test [11], in test [12], in test [13] and in [14] was > 100 µM (inactive) each time.
Regarding `CC(=O)Oc1ccc2c(c1)Oc1cc(C(C)=O)ccc1C21OC(=O)c2ccccc21` (stereo not drawn), the GI50 in [1] was > 100 µM (inactive); in [2] it was > 100 µM (inactive); in test [3] it was > 100 µM (inactive); in test [4] it was > 100 µM; in test [15], > 100 µM (inactive); in [5], > 100 µM (inactive). Moreover, the GI50 in [6], in test [7], in test [16], in [8], in test [9] and in test [10] was > 100 µM (inactive) throughout. The GI50 was 1.8 µM (inactive) in test [17]; > 100 µM (inactive) in [11]; > 100 µM (inactive) in [12]; > 100 µM (inactive) in test [13]; > 100 µM (inactive) in test [14].
On to `CC1(C)COC(c2cccc(C3=NC(C)(C)CO3)c2Br)=N1`, for which the GI50 in test [1] was > 100 µM (inactive); in [2], > 100 µM (inactive); in [3], > 100 µM (inactive); in test [4], > 100 µM; in test [15] it was > 100 µM (inactive); in test [5], > 100 µM (inactive). For the same compound, the GI50 in [6], in test [7], in [16], in [9], in test [10] and in test [17] was > 100 µM (inactive) throughout. For the same compound, the GI50 in test [18] was > 100 µM (inactive); in test [11], > 100 µM (inactive); in test [12], > 100 µM (inactive); in [13], > 100 µM (inactive); in test [14], 7.48 µM (inactive).
Take `CSC1NNC2(C(=O)N1)c1ccccc1-c1ccccc12` (stereo not drawn): the GI50 in test [1] is > 10 µM (inactive); in [2] it was 8.32 µM (inactive); in test [3], > 10 µM (inactive); in [4], > 10 µM; in test [15], > 10 µM (inactive); in test [5], > 10 µM (inactive). The GI50 in test [6], in [7], in test [16], in test [8], in test [9] and in [10] was > 10 µM (inactive) in each case. Moreover, the GI50 in [17], in test [18], in test [12] and in test [14] was > 10 µM (inactive) throughout.
Consider `C/C(=C/CC[C@](C)(OC1OC(CO)C(O)C(O)C1O)[C@H]1CC[C@]2(C)[C@@H]1CC[C@@H]1[C@@]3(C)CC[C@H](O)C(C)(C)[C@@H]3C[C@H](O)[C@]12CO)CO` (stereo partly drawn), for which the GI50 in test [1] is > 100 µM (inactive); in [2] it was > 100 µM (inactive); in [3], > 100 µM (inactive); in [4], > 100 µM; in test [15] it was > 100 µM (inactive); in test [5], > 100 µM (inactive). Moreover, the GI50 in test [6], in test [7], in test [16], in [8], in test [9] and in test [10] was > 100 µM (inactive) in each case. Also, the GI50 in [17], in test [18], in test [12], in [13] and in test [14] was > 100 µM (inactive) in each case.
As to `O=c1oc2ccc3ccccc3c2cc1-c1cn2c(n1)sc1ccccc12`, the GI50 was > 100 µM (inactive) in test [1]; 90.8 µM (inactive) in test [2]; > 100 µM (inactive) in [3]; > 100 µM in [4]; > 100 µM (inactive) in [15]; > 100 µM (inactive) in test [5]. For the same compound, the GI50 in test [6] was > 100 µM (inactive); in test [7], 26.4 µM (inactive); in [16] it was > 100 µM (inactive); in [8] it was > 100 µM (inactive); in test [9], > 100 µM (inactive); in test [10], > 100 µM (inactive). Besides, the GI50 in [17] is > 100 µM (inactive); in test [11], > 100 µM (inactive); in [12] it was > 100 µM (inactive); in test [13], > 100 µM (inactive); in [14], 92.7 µM (inactive).
For `CN(C)c1ccc(/N=N/c2ccncc2)cc1`, the GI50 in [1] is > 100 µM (inactive); in test [2] it was 18.5 µM (inactive); in test [3], > 100 µM (inactive); in test [4], > 100 µM; in test [15], 95.1 µM (inactive); in test [5], > 100 µM (inactive). Also, the GI50 is > 100 µM (inactive) in test [6]; 40.8 µM (inactive) in test [7]; > 100 µM (inactive) in test [16]; 46 µM (inactive) in test [8]; > 100 µM (inactive) in test [9]; > 100 µM (inactive) in test [10]. In addition, the GI50 in test [17] is 85.7 µM (inactive); in test [18], > 100 µM (inactive); in test [12] it was > 100 µM (inactive); in test [13] it was > 100 µM (inactive); in [14], 87.5 µM (inactive).
